Experimental data taken from patent US20130267544A1, “Use of LP-PLA2 Inhibitors in the Treatment and Prevention of Eye Diseases” (priority 2010, published 2013).
Entries after “also recorded” stand apart in the source; their conditions may differ.

Key:
DM/HC pigs = test: Behavioural observation of DM/HC pigs; type: in vivo, pig; conditions: 10 mg/kg/day, vs DM/HC control animals
Experimental: Yorkshire domestic farm pigs (˜25-35 kg; Archer Farms) were induced for diabetes with a single intravenous injection of 125 mg/kg streptozotocin (Mohler et al., 2008). Blood glucose and cholesterol were closely monitored. Three days after diabetes induction, a hyperlipidemic diet was used to achieve hypercholesterolemia with serum cholesterol concentrations clamped between 400 and 800 mg/dl. Because pigs have a variable serum cholesterol response to a high cholesterol diet, cholesterol concentrations were checked every two months. One month after DMHC induction, pigs were randomly assigned into either a control group or a treatment group receiving 10 mg/kg/d orally of the selective Lp-PLA2 inhibitor Darapladib (GlaxoSmithKline). Pigs were sacrificed after 28 weeks after induction (that is, 24 weeks after initiation of treatment). At the time of completion of the study, there were 17 pigs in the control group and 20 in the Darapladib-treated group, as three pigs in the control group were excluded from analysis because of persistently elevated cholesterol levels. […] The specific experiment was published (Wilensky et al., 2008) but no vascular leak data was presented in that publication.

[1] = system: DMHC pigs (Abeta42 in cerebral cortex); test: Abeta42 amount and distribution in cerebral cortex of DMHC pig brain; type: in vivo; conditions: 10 mg/kg/day for 24 weeks
Experimental: (§1) Yorkshire domestic farm pigs (˜25-35 kg; Archer Farms) were induced for diabetes with a single intravenous injection of 125 mg/kg streptozotocin (Mohler et al., 2008). Blood glucose and cholesterol were closely monitored. Three days after diabetes induction, a hyperlipidemic diet was used to achieve hypercholesterolemia with serum cholesterol concentrations clamped between 400 and 800 mg/dl. Because pigs have a variable serum cholesterol response to a high cholesterol diet, cholesterol concentrations were checked every two months. […]
(§2) Specimens from the brains of 29 pigs, included 3 untreated controls; 13 DMHC and 13 DMHC treated with Darapladib (Rx), were embedded in paraffin wax. Each brain specimen was serially sectioned, and the first section representing each sample was stained with Hematoxylin and Eosin (H+E) which permitted cortical from non-cortical regions based on differential staining to be determined. Full (large) face tissue blocks were used throughout this study in an effort to maximize the amount of tissue analyzed so as to favor subsequent quantification. The total areas (in sq. mm) of cortical and non-cortical brain tissue in each section were measured in H+E− stained sections using computer-assisted image analysis and Image Pro Plus software. […]

[2] = system: DMHC pigs (blood-brain barrier); test: IgG leak from brain blood vessels (BBB permeability) in diabetic/hypercholesterolemic pigs; type: in vivo, pig; conditions: 10 mg/kg/day orally for 24 weeks
Experimental: as §1, §2

Lp-PLA2 = Lp-PLA2 (Oryctolagus cuniculus, UniProt G1SE06); conditions: rabbits on cholesterol/copper diet, 10 mg/kg daily s.c. from day 1-72
Chain of Lp-PLA2 (G1SE06 22-423): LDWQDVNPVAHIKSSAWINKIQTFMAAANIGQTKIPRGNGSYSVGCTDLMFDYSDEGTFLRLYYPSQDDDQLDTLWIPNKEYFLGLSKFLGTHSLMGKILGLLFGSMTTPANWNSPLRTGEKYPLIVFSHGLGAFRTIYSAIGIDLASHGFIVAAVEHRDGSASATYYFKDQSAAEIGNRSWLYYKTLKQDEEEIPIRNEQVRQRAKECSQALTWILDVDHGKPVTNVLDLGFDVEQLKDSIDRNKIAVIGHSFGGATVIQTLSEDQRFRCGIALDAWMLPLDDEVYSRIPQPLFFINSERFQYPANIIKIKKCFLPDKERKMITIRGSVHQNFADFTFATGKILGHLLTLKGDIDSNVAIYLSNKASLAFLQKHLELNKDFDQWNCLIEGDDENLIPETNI
Experimental: 3-4 month SPF male New Zealand White rabbits were purchased from Covance (Denver, Pa.), individually housed and had ad libitum access to rabbit chow and water on a 12/12 h light/dark cycle. Experiments were repeated twice with animals arriving 3 weeks apart. Rabbits were randomly assigned to five treatment groups with a sample size of 8 animals per group. 32 Rabbits were placed on cholesterol/copper diet and 8 rabbits fed normal chow. Cholesterol/copper diet consisted of 160 g per day of commercially produced diet (Purina Mills High Fibre Diet) supplemented or not with 2% cholesterol. Copper sulphate (0.12 mg/l) was added to drinking water of rabbits assigned the cholesterol supplemented diet.
Animals were weighed and drug or vehicle administration delivered at 3 ml/kg to affect a 10 mg/kg dose by subcutaneous injection in the neck fold.
Six groups of animals consisting of 8 animals were assigned to the following treatment groups. Groups 1-5 were maintained on the cholesterol supplemented diet with copper sulphate in the drinking water.
Lp-PLA2 activity was measured in plasma samples collected at days 1, 29, 32 and 72 using proprietary GSK techniques.

[3] = system: STZ-induced diabetic SD rats; conditions: first study, 10 mg/kg/d i.p. from day 4
Experimental: Male SD rats, 6 weeks of age and weighing 180-200 g, were used in this study; the rats had free access to food and water and were maintained in cages in an environmentally controlled room with a 12 hour light-dark cycle. Diabetes was induced by following dosing of animals with streptozotocin (50 mg/kg/day dosed i.p. for each of the first 3 days of the protocol) in 10 mM sodium citrate-buffer pH 4.6. […] Animals which maintained an elevated blood glucose level of over 9 mM were deemed diabetic.
The retinal images were scanned by a commercially available Fourier-domain OCT (RTVue-100; version 2.1; Optovue, Inc., California, USA). Super-luminescent diode light source with a central wavelength of 840 nm and a full bandwidth of 50 nm was adapted to the OCT. The retinal thickness was accessed by the automatic software of RTVue scanner with manual adjusting. The retinal thickness was defined from layer of retinal pigment eitheluim (RPE) to retinal ganglion cell layer (GCL).
Two separate studies were conducted. Retinal images were taken on experimental day 4, 10, 13, 17, 22, 28 and 31 for the second study and day 0, 4, 7, 10, 14 and 18 for the first study. Animals were anesthetized by inhalation of 5% isoflourane and pupils were diluted with 1% tropicamide and 1% phenylephrine. Prior to OCT analysis animals were fixed on a support frame and the eye to be imaged positioned to align with the center of the scan beam perpendicular to the fundus. […] After imaging, the animals were recovered and returned to cages. Retinal thickness from six time points of OCT measurement were analyzed by repeated measures analysis of variance (ANOVA) using Prism software. […] All data were expressed as mean value±SEM.

rat Lp-PLA2 enzyme = conditions: compared with Lp-PLA2 inhibitor '495
[4] = system: rat brain microvascular endothelial cells co-cultured with rat brain astrocytes; test: Permeability of Lucifer yellow in BMEC-astrocyte co-cultures; type: cell-based; conditions: lysoPC 0.3-10 ug/mL added to apical side, 90 min
Experimental: (§3) Three-week-old Sprague-Dawley (SD) rats were sacrificed by cervical dislocation. After white matter, meninges and macroscopic pial vessels were removed, the gray matter was thoroughly triturated in ice-cold Dulbecco's modified Eagle's medium (DMEM). The tissue was then digested in DMEM (7 ml for 5 rat brains) containing collagenease II (1 mg/ml) and DNase I (39 U/ml) at 37° C. for 1 h with shaking speed of 130 rpm. The digested tissue was diluted with the same volume of DMEM and centrifuged at 1000 g for 8 min at 4° C. The cell pellet was re-suspended in a 20% bovine serum albumin (BSA)-DMEM solution and centrifuged at 1000 g for 20 min at 4° C. The microvessels obtained in the pellet were further digested with collagenase-dispase (1 mg/mL) and DNase I (39 U/ml) in DMEM (3 ml for 5 rat brains) for 0.5 h at 37° C. […] After 2 days of puromycin treatment, the culture medium was replaced with supplemented EBM®2 for another 2 days of maintenance before they were ready for construction of co-cultured model. […]
(§4) The astrocytes suspended in 10% FBS-DMEM were seeded on to Poly-L-lysine coated 24-well culture plate at passage between 1 and 4 at a density of 1.5×10^4/cm^2. […] Transendothelial electrical resistance (TEER) of the monolayers were determined everyday using Millicell-ERS (Millipore, Bedford, Mass.) and when the TEER >150 Ω·cm^2, the monolayer was ready for transport experiment. […]

[5] = system: rat brain microvascular endothelial cells co-cultured with rat brain astrocytes; test: Transendothelial electrical resistance of BMEC monolayers; type: cell-based; conditions: after addition of lysoPC to endothelial monolayers
Experimental: as §3, §4

## CCN(CC)CCN(Cc1ccc(-c2ccc(C(F)(F)F)cc2)cc1)C(=O)Cn1c(SCc2ccc(F)cc2)nc(=O)c2c1CCC2 [Darapladib, N-[2-(diethylamino)ethyl]-2-[[(4-fluorophenyl)methyl]thio]-4,5,6,7-tetrahydro-4-oxo-N-[[4′-(trifluoromethyl)[1,1′-biphenyl]-4-yl]methyl]-1H-cyclopentapyrimidine-1-acetamide]
DM/HC pigs
  general wellness (activity and alertness): general wellness effect (increased activity and alertness)
[1]
  total amount of Abeta42 (Abeta42 load) in the cerebral cortex: reduced amyloid deposition; also recorded: reduced the total amount of Abeta42
[1]; entire brain
  density of Abeta42-positive neurons in cerebral cortex: reduction in the number (density) of Abeta42 peptide positive neurones; also recorded: levels comparable to controls
[2]
  density of arteriolar leaks in the cortex (number of leaking arterioles per sq mm): reduced somewhat
[2]; 10 mg/kg/day
  extent of vascular (BBB) leaks: effective at reducing the extent of leaks in all vessel types; also recorded: highly efficacious effect in reducing the permeability of the BBB; also recorded: somewhat reduced

## CCN1CCC(N(Cc2ccc(-c3ccc(Cl)cc3)cc2)C(=O)Cn2c(CCc3cccc(F)c3F)nc(=O)c3ccccc32)CC1.O=C(O)C(O)C(O)C(=O)O [Lp-PLA2 inhibitor '859, N-(1-ethylpiperidin-4-yl)-2-(2-(2-(2,3-difluorophenyl)-ethyl)-4-oxo-4H-quninazolin-1-yl)-N-(4′-chloro-biphenyl-4-ylmethyl)acetamide bitartrate]
Lp-PLA2
  plasma Lp-PLA2 activity: significantly lower levels of Lp-PLA2 activity
[3]
  STZ-induced retinal thinning (neuroretinal thickness by OCT): not statistically significantly different from vehicle only treated animals
Rat Lp-PLA2 enzyme
  potency as inhibitor of rat Lp-PLA2 enzyme, relative: significantly less potent inhibitor

## lysophosphatidylcholine [lysoPC]
[4]
  transport of Lucifer yellow across endothelial monolayer: dose-dependent reduction in the transport of Lucifer yellow
[5]
  transendothelial electrical resistance (TEER): reduction in the transendothelial electrical resistance
